We go through five compounds from ChEMBL document CHEMBL1201862, “PubChem BioAssay data set” (2004).

Among the test systems are CAKI-1; HCT-15; IGROV-1; M14; NCI-H226; OVCAR-3; OVCAR-4; OVCAR-5; OVCAR-8; RXF 393; SF-295; SK-MEL-28; SK-MEL-2; SK-MEL-5; SN12C; SNB-19; TK-10; UO-31; HOP-92; HCC 2998.
What all share (assay): DTP human tumour cell line panel, 48 h

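How tested: cells in 96-well plates exposed to compound for 48 hours at five concentrations. At the GI50, growth is halved.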 Calls of active or inactive are those of the source. Cut-off read from the data, not from the text of the source: active = GI50 up to about 1.1 µM and inactive = higher.

For `OC12c3ccccc3C1CCCCCC21OCCCO1` (configuration not stated), the GI50 is > 100 µM (inactive) in the experiment with CAKI-1; above 100 µM in the experiment on HCT-15; > 100 µM (inactive) in the experiment on IGROV-1; > 100 µM (inactive) with M14; > 100 µM (inactive) in the experiment with NCI-H226; > 100 µM (inactive) in the experiment on OVCAR-3. Further, the GI50 with OVCAR-4, in the experiment with OVCAR-5, in the experiment on OVCAR-8, in the experiment with RXF 393, in the experiment with SF-295 and with SK-MEL-28 was > 100 µM (inactive) throughout. For the same compound, the GI50 in the experiment with SK-MEL-2, in the experiment on SK-MEL-5, with SN12C, with SNB-19, in the experiment with TK-10 and in the experiment with UO-31 was > 100 µM (inactive) throughout.
On to `O=Cc1ccc(CCl)cc1`, for which the GI50 with HCT-15 was 17.9 µM; with HOP-92, 27.7 µM (inactive); in the experiment with IGROV-1, 20.8 µM (inactive); in the experiment with M14, 14.8 µM (inactive); in the experiment on OVCAR-3 it was 19.1 µM (inactive); with OVCAR-5, 20.5 µM (inactive). The GI50 is 18.8 µM (inactive) in the experiment with OVCAR-8; 16.9 µM (inactive) with RXF 393; 17.4 µM (inactive) in the experiment on SF-295; 17.5 µM (inactive) with SK-MEL-28; 17.2 µM (inactive) with SK-MEL-2; 16.6 µM (inactive) with SK-MEL-5. Moreover, the results for the GI50 with SNB-19, in the experiment on TK-10 and in the experiment on UO-31 were 14.7 µM (inactive), 22.1 µM (inactive) and 16.7 µM (inactive), respectively.
On to `O=C(NC1C2CC3CC(C2)CC1C3)c1cc(/C=C/c2ccccc2)nc(S)n1` (configuration not stated), for which the GI50 in the experiment on CAKI-1, in the experiment with HCC 2998, in the experiment with IGROV-1, in the experiment on M14, in the experiment on OVCAR-3 and in the experiment with OVCAR-4 was > 100 µM (inactive) in each case. For the same compound, the GI50 with OVCAR-5, in the experiment on OVCAR-8, in the experiment with RXF 393, in the experiment with SF-295, in the experiment on SK-MEL-28 and in the experiment on SK-MEL-2 was > 100 µM (inactive) throughout. Further, the GI50 with SK-MEL-5, in the experiment on SNB-19, in the experiment on TK-10 and in the experiment on UO-31 was > 100 µM (inactive) in each case.
As to `CCN(CC)CCN(C(=O)c1ccc(F)cc1)c1ccccc1N`, the GI50 in the experiment with CAKI-1 is > 10 µM (inactive); with HCC 2998, > 10 µM (inactive); in the experiment on HCT-15, above 10 µM; in the experiment on IGROV-1, > 10 µM (inactive); with M14, > 10 µM (inactive); in the experiment on NCI-H226, 3.72 µM (inactive). Further, the GI50 with OVCAR-3, in the experiment on OVCAR-4, with OVCAR-5, with OVCAR-8, in the experiment with RXF 393 and in the experiment with SF-295 was > 10 µM (inactive) throughout. Besides, the GI50 in the experiment on SK-MEL-28, in the experiment on SK-MEL-2, in the experiment with SK-MEL-5, in the experiment with SN12C, with SNB-19 and with TK-10 was > 10 µM (inactive) throughout. Besides, the GI50 with UO-31 was > 10 µM (inactive).
Turning to `c1ccc2c(c1)SC1Sc3ccccc3[S+]21` (configuration not stated), the GI50 is 17.8 µM (inactive) in the experiment with CAKI-1; above 49.9 µM with HCT-15; 10.4 µM (inactive) in the experiment with HOP-92; 22 µM (inactive) in the experiment with IGROV-1; 21.5 µM (inactive) in the experiment with M14; 19.9 µM (inactive) in the experiment with NCI-H226. Further, the GI50 in the experiment on OVCAR-3 is 19.5 µM (inactive); in the experiment on OVCAR-4 it was 41.3 µM (inactive); with OVCAR-5 it was 27 µM (inactive); with OVCAR-8, 21.5 µM (inactive); with RXF 393, > 45.1 µM (inactive); in the experiment on SF-295, 53.2 µM (inactive). In addition, the GI50 in the experiment on SK-MEL-28 is 16.1 µM (inactive); in the experiment with SK-MEL-2, 34.8 µM (inactive); in the experiment with SK-MEL-5, 7.28 µM (inactive); with SN12C, 5.96 µM (inactive); with SNB-19, > 81.1 µM (inactive); with TK-10, 18.4 µM (inactive). Further, the GI50 with UO-31 is 20.8 µM (inactive).
